The text below walks through data of patent publication US11369583B2, “Long-acting prodrugs of rasagiline, preparing methods and uses thereof” (GUANGZHOU HENOVCOM BIOSCIENCE CO. LTD, priority 2017, dated 2022).

Series [1] can be described thus: Solubility of prodrug compounds of Rasagiline in phosphate buffer pH 7.4. The series is classed as physicochemical. From the text:
A melting point and solubility (phosphate buffer with pH of 7.4) of synthesized prodrug compounds of Rasagiline were detected, and the results are shown in table 1: […]

A short description of series [2]: Pharmacokinetics experiment: Rasagiline in blood plasma after intramuscular injection of prodrug suspensions into beagles. The conditions noted are these: beagle, intramuscular injectable suspension. The series is classed as in vivo. As to the method:
One common male beagle was used for each group, and they were forbidden to eat for 12 hours before administering drugs, and drank water freely meanwhile. Injectable suspensions of Example 13, Example 15, Example 14, Example 20, Example 8 were intramuscularly injected in a dosage of 0.47 mg/kg Rasagiline (1.72 mg/kg, 1.56 mg/kg, 1.64 mg/kg, 1.80 mg/kg, 1.16 mg/kg of prodrug respectively after conversion).
Treatment of blood plasma sample: The blood plasma sample was placed in an ice bath; 30 μL of methanol and 20 μL of interior label (2 μg/mL apigenin dissolved in 50% methanol) were added into 200 μL of the blood plasma sample and mixed through vortex, and then 4 mL of ethyl acetate was added and mixed through vortex. After being centrifuged at 9000 g for 2 minutes, an organic phase was separated and dried in vacuum, and then 150 μL of methanol was added for re-dissolution. 30 μL of a prepared sample was taken for analyzing.
Data analysis: The sample was detected by LC-MS/MS, and analyzed by a DAS 2.0 software to calculate pharmacokinetic parameters according to blood drug concentration, providing parameters such as AUC (0-t), AUC(0-∞), MRT(0-t), MRT(0-∞), Cmax, Tmax, and t1/2, etc.

The target of series [3] is Monoamine oxidase (MAO-B) (Homo sapiens, UniProt P27338). The conditions noted are these: monoamine oxidase inhibitor; stronger than Selegiline; cited from earlier work.
Monoamine oxidase (MAO-B), sequence (P27338 whole entry, species assumed): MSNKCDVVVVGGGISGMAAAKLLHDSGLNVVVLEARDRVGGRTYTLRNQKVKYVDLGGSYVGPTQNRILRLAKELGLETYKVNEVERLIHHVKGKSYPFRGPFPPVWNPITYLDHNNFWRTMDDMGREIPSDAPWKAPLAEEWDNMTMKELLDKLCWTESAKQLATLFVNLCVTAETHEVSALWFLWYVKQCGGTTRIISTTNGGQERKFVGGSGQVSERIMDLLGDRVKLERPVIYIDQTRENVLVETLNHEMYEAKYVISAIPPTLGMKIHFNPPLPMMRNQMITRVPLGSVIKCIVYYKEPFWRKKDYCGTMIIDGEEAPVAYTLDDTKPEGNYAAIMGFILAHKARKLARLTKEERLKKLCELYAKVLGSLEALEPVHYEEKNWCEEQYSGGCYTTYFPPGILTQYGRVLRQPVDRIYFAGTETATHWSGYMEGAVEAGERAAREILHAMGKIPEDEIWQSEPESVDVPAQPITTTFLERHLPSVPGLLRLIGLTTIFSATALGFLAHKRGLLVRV
[4] abbreviates: pH 7.4, aqueous buffer, phosphate buffer with pH of 7.4, read-out: SOLUBILITY

≈ marks a conversion by molar mass, not a printed value. Where two headings read alike, the source gives them in different places.

Usually solubility stands for the dissolved amount per volume that the medium holds. The term melting point denotes the temperature, or range, at which the solid turns liquid. For the compound `C#CCN(C(=O)OCOC(=O)CCCCCCCCCCCCCCC)[C@@H]1CCc2ccccc21` [Example 1, methyl ((Rasagiline-N-formyl)oxy)-palmitate], the melting point is under 25 °C. In series [1] (setting [4]), the solubility was under 5 µg/mL.

In the case of `C#CCN(C(=O)OCOC(=O)Cc1cccc2ccccc12)[C@@H]1CCc2ccccc21` [Example 2, methyl ((Rasagiline-N-formyl)oxy)-naphthalene acetate], the melting point lay within 66 to 70 °C. In addition, in series [1] (setting [4]), the solubility was under 5 µg/mL.

Consider `C#CCN(C(=O)OCOC(=O)CCCCCCCCCCCCCCCCC)[C@@H]1CCc2ccccc21` [Example 3, methyl ((Rasagiline-N-formyl)oxy)-stearate], for which the melting point is under 25 °C. Besides, the solubility in series [1] (setting [4]) was under 5 µg/mL.

`C#CCN(C(=O)OCOC(=O)C(C)(C)C)[C@@H]1CCc2ccccc21` [Example 4, methyl ((Rasagiline-N-formyl)oxy)-pivalate] showed a melting point of under 25 °C. The solubility in series [1] (setting [4]) was under 5 µg/mL.

Turning to `C#CCN(C(=O)OCOC(=O)CCCCCCCCCCCCCCCCCCC)[C@@H]1CCc2ccccc21` [Example 5, methyl ((Rasagiline-N-formyl)oxy)-icosanoate], the melting point is under 25 °C. In addition, the solubility in series [1] (setting [4]) is under 5 µg/mL.

In turn, `C#CCN(C(=O)OCOC(=O)CC[C@@H](C)C1CCC2C3C[C@H](O)[C@@H]4C[C@H](O)CC[C@]4(C)C3CC[C@@]21C)[C@@H]1CCc2ccccc21` (some centres unmarked) [Example 6, methyl ((Rasagiline-N-formyl)oxy)-hyodeoxycholate] had a melting point of under 50 °C. In series [1] (pH 7.4, aqueous buffer), the solubility was under 5 µg/mL.

Regarding `C#CCN(C(=O)OCOC(=O)CCCC[C@@H]1SC[C@@H]2NC(=O)N[C@@H]21)[C@@H]1CCc2ccccc21` [Example 7, methyl ((Rasagiline-N-formyl)oxy)-biotin methyl ester], in series [1] (setting [4]), the solubility turned out to be 31.7 µg/mL (≈ 67.2 µM).

For `C#CCN(C(=O)OCOC(=O)/C=C/c1ccc(O)c(OC)c1)[C@@H]1CCc2ccccc21` [Example 8, methyl ((Rasagiline-N-formyl)oxy)-ferulate], the melting point is 130.4 to 133.8 °C. In addition, the solubility in series [1] (setting [4]) is under 5 µg/mL.

The compound `C#CCN(C(=O)OCOC(=O)CC[C@@H](C)C1CCC2C3C(CC[C@@]21C)[C@@]1(C)CC[C@@H](O)C[C@H]1C[C@H]3O)[C@@H]1CCc2ccccc21` (some centres unmarked) [Example 9, methyl ((Rasagiline-N-formyl)oxy)-chenodeoxycholate] yielded a melting point of under 50 °C. Moreover, the solubility in series [1] (pH 7.4, aqueous buffer) is under 5 µg/mL.

As to `C#CCN(C(=O)OCOC(=O)CC[C@@H](C)C1CCC2C3C(CC[C@@]21C)[C@@]1(C)CC[C@@H](O)C[C@H]1C[C@@H]3O)[C@@H]1CCc2ccccc21` (some centres unmarked) [Example 10, methyl ((Rasagiline-N-formyl)oxy)-ursodesoxycholate], the melting point is under 50 °C. In addition, the solubility in series [1] (pH 7.4, aqueous buffer) is under 5 µg/mL.

In turn, `C#CCN(C(=O)OCOC(=O)CC[C@@H](C)C1CCC2C3CC[C@@H]4C[C@H](O)CC[C@]4(C)C3C[C@H](O)[C@@]21C)[C@@H]1CCc2ccccc21` (some centres unmarked) [Example 11, methyl ((Rasagiline-N-formyl)oxy)-deoxycholate] registered a melting point of under 50 °C. In addition, the solubility in series [1] (pH 7.4, aqueous buffer) was under 5 µg/mL.

`C#CCN(C(=O)OCOC(=O)CCCCCNC(=O)CCCCCCCCCCCCCCCCCCC)[C@@H]1CCc2ccccc21` [Example 12, methyl ((Rasagiline-N-formyl)oxy)-icosanamidohexanoate] came in with a melting point of 77.2 to 80.8 °C. Moreover, the solubility in series [1] (setting [4]) is under 5 µg/mL.

Consider `C#CCN(C(=O)OCOC(=O)CCCNC(=O)CCCCCCCCCCCCCCCCCCC)[C@@H]1CCc2ccccc21` [Example 13, methyl ((Rasagiline-N-formyl)oxy)-icosanamidobutanoate], for which the melting point fell in the range of 80 to 82 °C. The “release of the prodrug and conversion into Rasagiline (in words)” value in series [2] is reported as “steadier”. Further, the solubility in series [1] (setting [4]) is under 5 µg/mL.

Regarding `C#CCN(C(=O)OCOC(=O)CCCNC(=O)CCCCCCCCCCCCCCCCC)[C@@H]1CCc2ccccc21` [Example 14, methyl ((Rasagiline-N-formyl)oxy)-stearamidobutanoate], the melting point was in the range of 76 to 78 °C. The solubility in series [1] (setting [4]) was under 5 µg/mL.

Turning to `C#CCN(C(=O)OCOC(=O)CCCNC(=O)CCCCCCCCCCCCCCC)[C@@H]1CCc2ccccc21` [Example 15, methyl ((Rasagiline-N-formyl)oxy)-palmitamidobutanoate], the melting point is 73 to 75 °C. Moreover, the solubility in series [1] (setting [4]) was under 5 µg/mL.

On to `C#CCN(C(=O)OCOC(=O)CCCNC(=O)CCCCCCCCCCC)[C@@H]1CCc2ccccc21` [Example 16, methyl ((Rasagiline-N-formyl)oxy)4-dodecanamidobutanoate], for which the melting point fell in the range of 56.1 to 59.4 °C. Moreover, the solubility in series [1] (setting [4]) is under 5 µg/mL.

With `C#CCN(C(=O)OCOC(=O)CCCNC(=O)CCCCCCCCCCCCC)[C@@H]1CCc2ccccc21` [Example 17, methyl ((Rasagiline-N-formyl)oxy)4-tetradecanamidobutanorate], the melting point was in the range of 66.3 to 71.8 °C. For the same compound, in series [1] (setting [4]), the solubility is under 5 µg/mL.

The compound `C#CCN(C(=O)OCOC(=O)CCCNC(=O)CCCCCCCCCCCCCCCCCCCCC)[C@@H]1CCc2ccccc21` [Example 20, methyl ((Rasagiline-N-formyl)oxy)4-docosanamidobutanoate] registered a melting point of 55.4 to 56.2 °C. In series [2], the “release of the prodrug and conversion into Rasagiline (in words)” value is recorded as “steadier”. Further, in series [1] (setting [4]), the solubility was under 5 µg/mL.

With `C#CCN(C(=O)OCOC(=O)CCCCNC(=O)CCCCCCCCCCCCCCC)[C@@H]1CCc2ccccc21` [Example 21, methyl ((Rasagiline-N-formyl)oxy)5-palmitamidopentanoate], the melting point fell in the range of 58.3 to 58.9 °C. The solubility in series [1] (setting [4]) was under 5 µg/mL.

`C#CCN(C(=O)OCOC(=O)CCCCNC(=O)CCCCCCCCCCCCCCCCC)[C@@H]1CCc2ccccc21` [Example 22, methyl ((Rasagiline-N-formyl)oxy)5-stearamidopentanoate] had a melting point of 75.3 to 77.1 °C. In series [1] (setting [4]), the solubility is under 5 µg/mL.

Turning to `C#CCN(C(=O)OCOC(=O)CCC(=O)NCCCCCCCCCCCCCCCCCC)[C@@H]1CCc2ccccc21` [Example 23, methyl ((Rasagiline-N-formyl)oxy)4-octadecylamidosuccinate], the solubility in series [1] (setting [4]) is under 5 µg/mL.

As for `C#CCN[C@@H]1CCc2ccccc21` [Rasagiline], the “inhibiting effect compared to Selegiline” value in series [3] was 5-10 times.

“methyl ((Rasagiline-N-formyl)oxy)4-stearamidohexanoate [Example 18]”: the solubility in series [1] (pH 7.4) was under 5 µg/mL.
